In US20260130933A1, “PHARMACEUTICAL COMPOSITION FOR PREVENTION OR TREATMENT OF NEPHROPATHY AND/OR DIABETES MELLITUS, COMPRISING ENAVOGLIFLOZIN” (DAEWOONG PHARMACEUTICAL CO., LTD., priority 2022, published 2026):

Assay: Example 2: phase 3 trial, enavogliflozin 0.3 mg vs dapagliflozin 10 mg once a day for 24 weeks added to metformin in patients with type 2 diabetes (same efficacy, exploratory and safety endpoints)
Type: in vivo, human
Procedure: Subjects who met the inclusion/exclusion criteria were administered a placebo of the clinical trial drug under single-blind (subject blinding) conditions during a 2-week run-in period while continuing to receive metformin. […] The randomized subjects were administered two tablets of the clinical trial drug for each administration group once a day, and then visited the institution at weeks 6, 12, 18, and 24 during the 24-week administration period to conduct efficacy and safety evaluations.
• 1. Change in HbA1c at week 24 after administration of clinical trial drug compared to Visit 2 (randomization)
• 1. Change in HbA1c at each time point of weeks 6, 12, and 18 after administration of clinical trial drug compared to Visit 2 (randomization) • 2. Change in FPG at each time point of weeks 6, 12, 18, and 24 after administration of clinical trial drug compared to Visit 2 (randomization) • 3. Proportion of subjects achieving HbA1c<7% at each time point of weeks 6, 12, 18, and 24 after administration of clinical trial drug • 4. Proportion of subjects achieving HbA1c<6.5% at each time point of weeks 6, 12, 18, and 24 after administration of clinical trial drug • 5. Proportion of subjects achieving therapeutic response (HbA1c change (HbA1c at Visit 2-HbA1c at each evaluation time point)>0.5% or HbA1c<7% at each evaluation time point compared to Visit 2 (randomization)) at each time point of weeks 6, 12, 18 and 24 after administration of clinical trial drug
• 1. Change in fasting c-peptide at each time point of weeks 6, 12, 18, and 24 after administration of clinical trial drug compared to Visit 2 (randomization) • 2. Change in body weight at each time point of weeks 6, 12, 18, and 24 after administration of clinical trial drug compared to Visit 2 (randomization) • 3. Change in fasting lipid concentration (total cholesterol, LDL-C, HDL-C, and triglycerides) at each time point of weeks 6, 12, 18, and 24 after administration of clinical trial drug compared to Visit 2 (randomization) • 4. Changes in systolic or diastolic blood pressure at each time point of weeks 6, 12, 18, and 24 after administration of clinical trial drug compared to Visit 2 (randomization) • 5. Changes in β-cell function and insulin resistance measured by HOMA-β and HOMA-IR at each time point of weeks 6, 12, 18, and 24 after administration of clinical trial drug compared to Visit 2 (randomization) • 6. Changes in renal function-related indicators (UACR, UGCR) measured by UACR at each time point of weeks 6, 12, 18, and 24 after administration of clinical trial drug compared to Visit 2 (randomization) • 7. Changes in obesity-related indicators (adiponectin, leptin) at each time point of weeks 6, 12, 18, and 24 after administration of clinical trial drug compared to Visit 2 (randomization)

[1] = Week 6, PPS, enavogliflozin minus dapagliflozin
[2] = Week 6, mPPS1, enavogliflozin minus dapagliflozin
[3] = Week 6, mPPS2, enavogliflozin minus dapagliflozin
[4] = Week 12, PPS, enavogliflozin minus dapagliflozin

## OC[C@H]1O[C@@H](c2cc(Cc3ccc(C4CC4)cc3)c(Cl)c3c2CCO3)[C@H](O)[C@@H](O)[C@@H]1O [Enavogliflozin, (2S,3R,4R,5S,6R)-2-(7-chloro-6 (4-cyclopropylbenzyl)-2,3-dihydrobenzofuran-4-yl)-6-(hydroxymethyl)tetrahydro-2H-pyran-3,4,5-triol]
[1]
  UGCR change from baseline, LS mean difference: 15.62 mg/mg
  leptin change from baseline, LS mean difference: -0.81 ng/mL
Week 6, mPPS1
  HDL-C change from baseline, ANCOVA LS mean (SE): 1.11(0.58) mg/dL
  HDL-C change from baseline, Mean (SD): 1.18(5.14) mg/dL
  HDL-C change from baseline, Median: 1.00 mg/dL
  HDL-C, Mean (SD): 52.12(11.10) mg/dL
  HDL-C, Median: 51.00 mg/dL
  LDL-C change from baseline, ANCOVA LS mean (SE): −0.09(1.89) mg/dL
  LDL-C change from baseline, Mean (SD): −0.67(15.12) mg/dL
  LDL-C change from baseline, Median: -2.00 mg/dL
  LDL-C, Mean (SD): 85.85(31.51) mg/dL
  LDL-C, Median: 79.00 mg/dL
  Triglycerides change from baseline, ANCOVA LS mean (SE): 8.62(6.88) mg/dL
  Triglycerides change from baseline, Mean (SD): 9.49(73.63) mg/dL
  Triglycerides change from baseline, Median: -3.00 mg/dL
  Triglycerides, Mean (SD): 131.59(114.93) mg/dL
  Triglycerides, Median: 97.00 mg/dL
[2]
  HDL-C change from baseline, LS mean difference: -0.49 mg/dL
  LDL-C change from baseline, LS mean difference: -4.29 mg/dL
  triglycerides change from baseline, LS mean difference: 18.76 mg/dL
Week 6, mPPS2
  Diastolic blood pressure change from baseline, ANCOVA LS mean (SE): −2.75 mmHg
  Diastolic blood pressure change from baseline, Mean (SD): −2.80 mmHg
  Diastolic blood pressure change from baseline, Median: −3.00 mmHg
  Diastolic blood pressure, Mean (SD): 74.25 mmHg
  Diastolic blood pressure, Median: 74.00 mmHg
  Systolic blood pressure change from baseline, ANCOVA LS mean (SE): −3.29(1.02) mmHg
  Systolic blood pressure change from baseline, Mean (SD): −3.28(9.34) mmHg
  Systolic blood pressure change from baseline, Median: −4.00 mmHg
  Systolic blood pressure, Mean (SD): 126.44(14.45) mmHg
  Systolic blood pressure, Median: 128.00 mmHg
[3]
  diastolic blood pressure change from baseline, LS mean difference: −1.28 mmHg
  systolic blood pressure change from baseline, LS mean difference: −0.58 mmHg
Week 12, PPS
  Adiponectin change from baseline, ANCOVA LS mean (SE): 0.84 µg/mL
  Adiponectin change from baseline, Mean (SD): 0.9 µg/mL
  Adiponectin change from baseline, Median: 0.68 µg/mL
  Adiponectin, Mean (SD): 7.87 µg/mL
  Adiponectin, Median: 6.91 µg/mL
  HOMA-IR change from baseline, ANCOVA LS mean (SE): −1.58
  HOMA-IR change from baseline, Mean (SD): −1.36
  HOMA-IR change from baseline, Median: −0.99
  HOMA-IR, Mean (SD): 2.10
  HOMA-IR, Median: 1.61
  HOMA-β change from baseline, ANCOVA LS mean (SE): 5.57
  HOMA-β change from baseline, Mean (SD): 5.59
  HOMA-β change from baseline, Median: 5.10
  HOMA-β, Mean (SD): 51.45
  HOMA-β, Median: 41.60
  Leptin change from baseline, ANCOVA LS mean (SE): -2.64 ng/mL
  Leptin change from baseline, Mean (SD): -2.73 ng/mL
  Leptin change from baseline, Median: -1.45 ng/mL
  Leptin, Mean (SD): 9.56 ng/mL
  Leptin, Median: 6.60 ng/mL
  UACR change from baseline, ANCOVA LS mean (SE): -21.65 g/kg
  UACR change from baseline, Mean (SD): -18550 mg/kg
  UACR change from baseline, Median: -1.40 g/kg
  UACR, Mean (SD): 19800 mg/kg
  UACR, Median: 11.05 g/kg
  UGCR change from baseline, ANCOVA LS mean (SE): 64.70 mg/mg
  UGCR change from baseline, Mean (SD): 63.04 mg/mg
  UGCR change from baseline, Median: 58.91 mg/mg
  UGCR, Mean (SD): 64.53 mg/mg
  UGCR, Median: 62.30 mg/mg
[4]
  HOMA-IR change from baseline, LS mean difference: 0.02
  HOMA-β change from baseline, LS mean difference: −3.17
  UACR change from baseline, LS mean difference: -18.27 g/kg
  UGCR change from baseline, LS mean difference: 19.57 mg/mg
  leptin change from baseline, LS mean difference: 0.07 ng/mL
Week 12, mPPS1
  HDL-C change from baseline, ANCOVA LS mean (SE): 2.31(0.60) mg/dL
  HDL-C change from baseline, Mean (SD): 2.08(5.60) mg/dL
  HDL-C change from baseline, Median: 2.00 mg/dL
